The supplement of paper PMC10307832

Tests used:
Experiment in all cases: relative viability (nuclei count vs DMSO), 5 days (fraction); higher = more cells survive
NCI-H520 = test system: NCI-H520
Outline: (§1)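 For relative viability, nuclei counts in treated wells were divided by those in vehicle wells. Lung cancer cell lines had been pin-tool dosed in 1536-well plates the day after seeding and cultured for 5 days, then fixed and stained in one step (final 0.05% Triton X-100, 1% formaldehyde, 1 ug/ml Hoechst) and imaged at 4×. Doses were one drug alone or a fixed anchor-drug dose plus five library-drug doses (not always all listed) in √10 steps, and values are duplicate-plate medians.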

NCI-H661 = test system: NCI-H661
Outline: as §1

NCI-H2342 = test system: NCI-H2342
Outline: as §1

ChaGo-K-1 = test system: ChaGo-K-1
Outline: as §1

NCI-H1666 = test system: NCI-H1666
Outline: as §1

NCI-H2170 = test system: NCI-H2170
Outline: as §1

HOP-62 = test system: HOP-62
Outline: as §1

NCI-H838 = test system: NCI-H838
Outline: as §1

NCI-H1993 = test system: NCI-H1993
Outline: as §1

CAL-12T = test system: CAL-12T
Outline: as §1

NCI-H2085 = test system: NCI-H2085
Outline: as §1

NCI-H1355 = test system: NCI-H1355
Outline: as §1

NCI-H1734 = test system: NCI-H1734
Outline: as §1

COR-L23 = test system: COR-L23
Outline: as §1

RERF-LC-KJ = test system: RERF-LC-KJ
Outline: as §1

NCI-H1651 = test system: NCI-H1651
Outline: as §1

NCI-H322M = test system: NCI-H322M
Outline: as §1

201T = test system: 201T
Outline: as §1

LC-2-ad = test system: LC-2-ad
Outline: as §1

NCI-H1944 = test system: NCI-H1944
Outline: as §1

NCI-H2228 = test system: NCI-H2228
Outline: as §1

NCI-H1395 = test system: NCI-H1395
Outline: as §1

Structure (SMILES): COCC1(CO)C(=O)C2CCN1CC2 (stereo not drawn) [PRIMA-1MET] + COc1cc2c(Oc3ccc(NC(=O)C4(C(=O)Nc5ccc(F)cc5)CC4)cc3F)ccnc2cc1OCCCN1CCOCC1 [Foretinib] (partner 0.25 µM)
- relative viability (NCI-H520; first compound 0.2 µM): 0.794
- relative viability (NCI-H520; first compound 0.6325 µM): 0.62
- relative viability (NCI-H520; first compound 2 µM): 0.669
- relative viability (NCI-H520; first compound 6.325 µM): 0.715
- relative viability (NCI-H520; first compound 20 µM): 0.0989
- relative viability (NCI-H661; first compound 0.2 µM): 1.07
- relative viability (NCI-H661; first compound 0.6325 µM): 1
- relative viability (NCI-H661; first compound 2 µM): 0.975
- relative viability (NCI-H661; first compound 6.325 µM): 0.988
- relative viability (NCI-H661; first compound 20 µM): 0.979
- relative viability (NCI-H2342; first compound 0.2 µM): 1.06
- relative viability (NCI-H2342; first compound 0.6325 µM): 0.986
- relative viability (NCI-H2342; first compound 2 µM): 0.887
- relative viability (NCI-H2342; first compound 6.325 µM): 1.01
- relative viability (NCI-H2342; first compound 20 µM): 0.99
- relative viability (ChaGo-K-1; first compound 0.2 µM): 1.03
- relative viability (ChaGo-K-1; first compound 0.6325 µM): 0.838
- relative viability (ChaGo-K-1; first compound 2 µM): 0.911
- relative viability (ChaGo-K-1; first compound 6.325 µM): 1.01
- relative viability (ChaGo-K-1; first compound 20 µM): 0.859
- relative viability (NCI-H1666; first compound 0.2 µM): 0.959
- relative viability (NCI-H1666; first compound 0.6325 µM): 0.906
- relative viability (NCI-H1666; first compound 2 µM): 0.942
- relative viability (NCI-H1666; first compound 6.325 µM): 0.952
- relative viability (NCI-H1666; first compound 20 µM): 0.908
- relative viability (NCI-H2170; first compound 0.2 µM): 1.04
- relative viability (NCI-H2170; first compound 0.6325 µM): 0.921
- relative viability (NCI-H2170; first compound 2 µM): 0.945
- relative viability (NCI-H2170; first compound 6.325 µM): 1.01
- relative viability (NCI-H2170; first compound 20 µM): 0.94
- relative viability (HOP-62; first compound 0.2 µM): 1.18
- relative viability (HOP-62; first compound 0.6325 µM): 1.07
- relative viability (HOP-62; first compound 2 µM): 0.931
- relative viability (HOP-62; first compound 6.325 µM): 1.1
- relative viability (HOP-62; first compound 20 µM): 0.799
- relative viability (NCI-H838; first compound 0.2 µM): 1.23
- relative viability (NCI-H838; first compound 0.6325 µM): 0.822
- relative viability (NCI-H838; first compound 2 µM): 1.02
- relative viability (NCI-H838; first compound 6.325 µM): 1.07
- relative viability (NCI-H838; first compound 20 µM): 0.683
- relative viability (NCI-H1993; first compound 0.2 µM): 0.875
- relative viability (NCI-H1993; first compound 0.6325 µM): 0.767
- relative viability (NCI-H1993; first compound 2 µM): 0.657
- relative viability (NCI-H1993; first compound 6.325 µM): 0.803
- relative viability (NCI-H1993; first compound 20 µM): 0.754
- relative viability (CAL-12T; first compound 0.2 µM): 1.33
- relative viability (CAL-12T; first compound 0.6325 µM): 1.23
- relative viability (CAL-12T; first compound 2 µM): 1
- relative viability (CAL-12T; first compound 6.325 µM): 1.16
- relative viability (CAL-12T; first compound 20 µM): 0.939
- relative viability (NCI-H2085; first compound 0.2 µM): 1.01
- relative viability (NCI-H2085; first compound 0.6325 µM): 1.01
- relative viability (NCI-H2085; first compound 2 µM): 0.772
- relative viability (NCI-H2085; first compound 6.325 µM): 0.53
- relative viability (NCI-H2085; first compound 20 µM): 0.122
- relative viability (NCI-H1355; first compound 0.2 µM): 1.02
- relative viability (NCI-H1355; first compound 0.6325 µM): 0.846
- relative viability (NCI-H1355; first compound 2 µM): 1.01
- relative viability (NCI-H1355; first compound 6.325 µM): 1.01
- relative viability (NCI-H1355; first compound 20 µM): 0.956
- relative viability (NCI-H1734; first compound 0.2 µM): 1.04
- relative viability (NCI-H1734; first compound 0.6325 µM): 0.741
- relative viability (NCI-H1734; first compound 2 µM): 0.741
- relative viability (NCI-H1734; first compound 6.325 µM): 0.759
- relative viability (NCI-H1734; first compound 20 µM): 0.0666
- relative viability (COR-L23; first compound 0.2 µM): 1.23
- relative viability (COR-L23; first compound 0.6325 µM): 0.956
- relative viability (COR-L23; first compound 2 µM): 0.95
- relative viability (COR-L23; first compound 6.325 µM): 1.06
- relative viability (COR-L23; first compound 20 µM): 0.0732
- relative viability (RERF-LC-KJ; first compound 0.2 µM): 0.872
- relative viability (RERF-LC-KJ; first compound 0.6325 µM): 0.878
- relative viability (RERF-LC-KJ; first compound 2 µM): 0.922
- relative viability (RERF-LC-KJ; first compound 6.325 µM): 0.957
- relative viability (RERF-LC-KJ; first compound 20 µM): 0.819
- relative viability (NCI-H1651; first compound 0.2 µM): 0.87
- relative viability (NCI-H1651; first compound 0.6325 µM): 0.578
- relative viability (NCI-H1651; first compound 2 µM): 0.77
- relative viability (NCI-H1651; first compound 6.325 µM): 0.933
- relative viability (NCI-H1651; first compound 20 µM): 0.827
- relative viability (NCI-H322M; first compound 0.2 µM): 1.14
- relative viability (NCI-H322M; first compound 0.6325 µM): 0.911
- relative viability (NCI-H322M; first compound 6.325 µM): 1.18
- relative viability (NCI-H322M; first compound 20 µM): 0.931
- relative viability (201T; first compound 0.2 µM): 1.33
- relative viability (201T; first compound 0.6325 µM): 1.09
- relative viability (201T; first compound 2 µM): 0.97
- relative viability (201T; first compound 6.325 µM): 1.15
- relative viability (201T; first compound 20 µM): 1.08
- relative viability (LC-2-ad; first compound 0.2 µM): 0.987
- relative viability (LC-2-ad; first compound 2 µM): 0.843
- relative viability (LC-2-ad; first compound 6.325 µM): 0.887
- relative viability (LC-2-ad; first compound 20 µM): 0.966
- relative viability (NCI-H1944; first compound 0.2 µM): 1.02
- relative viability (NCI-H1944; first compound 0.6325 µM): 0.789
- relative viability (NCI-H1944; first compound 2 µM): 0.837
- relative viability (NCI-H1944; first compound 6.325 µM): 0.881
- relative viability (NCI-H1944; first compound 20 µM): 0.861
- relative viability (NCI-H2228; first compound 0.2 µM): 0.973
- relative viability (NCI-H2228; first compound 0.6325 µM): 0.938
- relative viability (NCI-H2228; first compound 2 µM): 0.87
- relative viability (NCI-H2228; first compound 6.325 µM): 0.952
- relative viability (NCI-H2228; first compound 20 µM): 0.0309
- relative viability (NCI-H1395; first compound 0.2 µM): 1.03
- relative viability (NCI-H1395; first compound 0.6325 µM): 0.652
- relative viability (NCI-H1395; first compound 2 µM): 1.05
- relative viability (NCI-H1395; first compound 6.325 µM): 1
- relative viability (NCI-H1395; first compound 20 µM): 0.971
